The target in the assay is T1, Aminopeptidase B (Rattus norvegicus, UniProt O09175).
T1 sequence (O09175 whole entry): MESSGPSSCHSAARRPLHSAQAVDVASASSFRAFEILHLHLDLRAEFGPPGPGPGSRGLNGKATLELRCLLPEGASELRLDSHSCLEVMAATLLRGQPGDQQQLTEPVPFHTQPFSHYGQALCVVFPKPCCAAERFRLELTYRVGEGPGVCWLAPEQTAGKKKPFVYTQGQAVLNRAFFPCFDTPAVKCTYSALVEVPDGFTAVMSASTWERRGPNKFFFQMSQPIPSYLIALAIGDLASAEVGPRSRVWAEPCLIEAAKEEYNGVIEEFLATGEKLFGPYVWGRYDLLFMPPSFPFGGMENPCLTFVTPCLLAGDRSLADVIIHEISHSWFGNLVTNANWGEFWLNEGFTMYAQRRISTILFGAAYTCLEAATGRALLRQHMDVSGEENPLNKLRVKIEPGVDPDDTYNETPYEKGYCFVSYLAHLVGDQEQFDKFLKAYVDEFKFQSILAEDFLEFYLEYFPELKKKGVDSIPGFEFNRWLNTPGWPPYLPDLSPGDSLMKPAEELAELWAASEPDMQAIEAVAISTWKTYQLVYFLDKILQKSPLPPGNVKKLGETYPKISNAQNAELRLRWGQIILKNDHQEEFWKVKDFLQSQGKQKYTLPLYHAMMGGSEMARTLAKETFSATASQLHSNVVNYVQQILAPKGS
Put plainly: Inhibition of rat liver aminopeptidase B using 0.2 mM […] by colorimetry.

As for `CC(C)CCNC(=O)[C@@H](O)[C@H](N)Cc1ccccc1`, it took 640 µM to reach half-maximal inhibition (IC50).
